“Also recorded” adds a separate entry of the source. Where a name gives a salt, the structure may show the parent alone. Read-outs that look alike come from different tables or passages of the source.
Assays:
[1] = patient; cited from earlier work
choroid of the eye = settings: rats; clonidine hydrochloride; cited from earlier work
α2-adrenergic receptor [2] = molecular target: T1, α2-adrenergic receptor (Homo sapiens, UniProt P08913); assay: biochemical
T1 sequence (P08913 1-465): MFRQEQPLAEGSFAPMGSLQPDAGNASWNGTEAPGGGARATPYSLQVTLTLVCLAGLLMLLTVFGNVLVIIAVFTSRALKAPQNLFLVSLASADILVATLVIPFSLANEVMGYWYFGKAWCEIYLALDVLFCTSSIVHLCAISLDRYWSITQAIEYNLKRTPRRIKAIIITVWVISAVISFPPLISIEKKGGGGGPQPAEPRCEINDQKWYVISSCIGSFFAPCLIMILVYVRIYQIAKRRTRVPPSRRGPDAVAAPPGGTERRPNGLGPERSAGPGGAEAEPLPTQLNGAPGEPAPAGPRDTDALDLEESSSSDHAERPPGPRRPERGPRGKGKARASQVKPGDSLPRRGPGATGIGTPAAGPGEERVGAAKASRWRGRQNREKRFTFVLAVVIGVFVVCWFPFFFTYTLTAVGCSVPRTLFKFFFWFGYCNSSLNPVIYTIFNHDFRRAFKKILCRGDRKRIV
Experimental: (§1) Human platelet plasma membranes were prepared by sonication of human platelet concentrates (Red Cross) followed by centrifugation on a discontinuous sucrose gradient (14%/34% by weight) for 3 hours at 140,000 x g. The membrane fraction was collected from the interface of the heavy and light sucrose, and will be herein designated as purified platelet plasma membrane (PPM).
(§2) Bound radioactivity was measured by scintillation counting of the GF/C filter in OCF scintillation cocktail (Amerscham) on a Beckman LR 8100 scintillation counter.
(§3) IC50 is the concentration of compound which reduces binding to 50% of the initial value.

α2-adrenergic receptor [3] = molecular target: T1, α2-adrenergic receptor; settings: human platelet membranes, comparison with other drugs
Experimental: as §1, §2, §3

heart = settings: in vivo; cited from earlier work
[4] = test system: peripheral α-adrenergic receptors; settings: used as an antihypertensive; initial stimulation of peripheral α-adrenergic receptors; cited from earlier work
α2-receptor sites = settings: central nervous system; cited from earlier work
[5] = test system: bulbar sympathetic cardioaccelerator and sympathetic vasoconstrictor centers; settings: in vivo; cited from earlier work
[6] = test system: α2-adrenergic receptor sites; settings: cited from earlier work

Clc1cccc(Cl)c1N=C1NCCN1 [clonidine hydrochloride]
route of excretion of drug and metabolites [1]: leave the patient primarily through urinary discharge | buildup in the choroid of the eye (choroid of the eye): significant buildup of clonidine occurs in the choroid of the eye | retinal degeneration (choroid of the eye): possibility of retinal degeneration

Clc1cc(I)cc(Cl)c1N=C1NCCN1 [p-Iodoclonidine, 2-(2,6-dichloro-4-iodophenylimino-2)imidazolidine]
IC50 (α2-adrenergic receptor [2]): 1.3 nM | relative affinity / potency in competition for α2-adrenergic receptor sites, in words (α2-adrenergic receptor [3]): greater affinity for the receptor than clonidine | relative affinity / potency in competition for α2-adrenergic receptor sites, in words (α2-adrenergic receptor [3]; listed as p-iodoclonidine): more potent than either p-aminoclonidine or clonidine in competition for α2 -adrenergic receptor sites; also recorded: more potent (IC50 =1.3) than clonidine, p-aminoclonidine, or yohimbine; also recorded: binds better than epinephrine

Clc1cccc(Cl)c1N=C1NCCN1 [Clonidine, 2-(2,6-dichlorophenylamine)-2-imidazoline]
tissue localization (heart): known to localize in the heart | initial vascular effect [4]: transient vasoconstriction | response to activation of α2-receptor sites (α2-receptor sites): response similar to norepinephrine in the central nervous system | sympathetic outflow from the brain [5]: decrease in sympathetic outflow from the brain | binding site specificity [6]: binds preferentially to α2 -adrenergic receptor sites
